Test results: patent US20260297081A1, “COMPOUNDS AND METHODS OF TREATING CANCERS” (Cullgen Inc., priority 2023, published 2026)

Target: CDK4 (Homo sapiens, UniProt P11802+Q16531)
Assay: CDK4 percentage degradation in Calu-1 cells (Table 6)
Assay type: cell-based
Design: Cells that express cyclin D1-3 and CDK4/6 proteins were treated with heterobifunctional compounds; endogenous in cells; host or cells: Calu-1
Details: 16 hours; for inhibition at 0.04 µM: 40 nM; for inhibition at 0.2 µM: 200 nM
Protocol: Calu-(cells were treated with heterobifunctional compounds at 40 nM or 200 nM for 16 hours A: protein percentage degradation […]; B: protein percentage degradation <80%, and ≥50%; C: protein percentage degradation <50%, and ≥30%; D; protein percentage degradation […]; -, data not available.
Calu-1, T47D, MCF7, HCC1428 and other cells were cultured at 37° C. with 5% CO2 in RPMI 1640 or DMEM medium supplemented with 10% fetal bovine serum. Cells were authenticated using the short tandem repeat (STR) assays. Mycoplasma test results were negative. For palbo-resistant cell model, T47D cells were cultured long-term to resistance in the presence of 1 μM Palbociclib. Cells were deemed resistant when growing in the presence of Palbo at the same rate as parental cells.
Cultured cells were washed with cold PBS once and lysed in cold RIPA buffer supplemented with protease inhibitors and phosphatase inhibitors (Beyotime Biotechnology). The solutions were then incubated at 4 ? for 30 min with gentle agitation to fully lysed cells. Cell lysates were centrifuged at 13,000 rpm for 10 min at 4 ? and pellets were discarded. Total protein concentrations in the lysates were determined following BCA assays (Beyotime Biotechnology). Cell lysates were mixed with Laemmli loading buffer and heated at 99° C. for 5 min. Proteins were resolved on SDS-PAGE and visualized using Western ECL Substrate kits on a ChemiDoc MP Imaging system (Bio-Rad). Protein bands were quantitated using the Image Lab software provided by Bio-Rad.

Sequence of CDK4 (P11802 2-303 limits assumed): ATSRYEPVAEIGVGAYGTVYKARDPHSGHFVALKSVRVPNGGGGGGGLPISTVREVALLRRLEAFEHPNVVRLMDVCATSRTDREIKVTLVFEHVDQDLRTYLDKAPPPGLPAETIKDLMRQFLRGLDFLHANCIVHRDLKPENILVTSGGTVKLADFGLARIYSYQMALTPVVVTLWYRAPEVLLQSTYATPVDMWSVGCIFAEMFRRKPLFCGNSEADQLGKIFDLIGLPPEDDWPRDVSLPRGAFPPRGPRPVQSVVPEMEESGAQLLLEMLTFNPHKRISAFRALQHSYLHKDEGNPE
Sequence of CDK4 (P24385 whole entry partner): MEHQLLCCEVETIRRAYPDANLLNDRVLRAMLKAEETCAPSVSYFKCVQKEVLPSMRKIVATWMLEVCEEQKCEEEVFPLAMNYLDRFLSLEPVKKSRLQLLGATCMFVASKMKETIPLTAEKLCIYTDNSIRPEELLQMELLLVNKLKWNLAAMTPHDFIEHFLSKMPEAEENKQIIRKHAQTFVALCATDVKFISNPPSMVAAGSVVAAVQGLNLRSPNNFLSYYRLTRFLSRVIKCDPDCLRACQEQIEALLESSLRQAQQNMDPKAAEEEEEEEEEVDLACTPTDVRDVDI
Sequence of CDK4 (Q16531 2-1140 limits assumed): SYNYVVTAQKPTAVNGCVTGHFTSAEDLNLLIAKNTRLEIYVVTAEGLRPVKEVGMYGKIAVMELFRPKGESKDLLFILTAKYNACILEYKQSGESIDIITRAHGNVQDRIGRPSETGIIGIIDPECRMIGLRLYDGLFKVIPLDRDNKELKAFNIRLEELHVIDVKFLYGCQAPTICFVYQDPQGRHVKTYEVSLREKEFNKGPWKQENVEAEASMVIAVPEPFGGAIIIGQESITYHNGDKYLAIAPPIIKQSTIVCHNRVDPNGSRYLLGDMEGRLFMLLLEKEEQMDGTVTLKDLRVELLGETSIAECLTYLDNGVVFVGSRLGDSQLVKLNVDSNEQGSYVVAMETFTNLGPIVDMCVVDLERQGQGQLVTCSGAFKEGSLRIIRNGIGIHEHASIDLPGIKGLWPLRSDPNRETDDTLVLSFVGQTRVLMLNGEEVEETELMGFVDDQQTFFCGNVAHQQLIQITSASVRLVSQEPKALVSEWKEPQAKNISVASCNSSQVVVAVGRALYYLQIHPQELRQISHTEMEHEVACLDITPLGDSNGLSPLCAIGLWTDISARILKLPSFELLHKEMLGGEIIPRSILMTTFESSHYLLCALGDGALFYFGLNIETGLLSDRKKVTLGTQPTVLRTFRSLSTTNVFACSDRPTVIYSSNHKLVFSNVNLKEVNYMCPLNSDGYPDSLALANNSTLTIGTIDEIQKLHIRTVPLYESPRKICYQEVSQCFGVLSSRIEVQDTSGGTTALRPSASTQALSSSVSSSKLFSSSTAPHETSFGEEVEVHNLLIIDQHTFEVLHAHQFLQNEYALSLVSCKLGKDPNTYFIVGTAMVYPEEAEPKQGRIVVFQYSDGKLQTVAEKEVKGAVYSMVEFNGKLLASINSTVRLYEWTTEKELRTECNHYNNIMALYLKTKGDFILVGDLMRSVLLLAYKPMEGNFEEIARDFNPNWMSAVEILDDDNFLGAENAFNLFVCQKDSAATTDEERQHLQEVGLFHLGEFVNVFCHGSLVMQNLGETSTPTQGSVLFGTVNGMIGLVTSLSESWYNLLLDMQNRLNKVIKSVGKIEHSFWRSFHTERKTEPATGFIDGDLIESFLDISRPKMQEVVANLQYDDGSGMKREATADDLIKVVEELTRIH

| inhibition at 0.04 µM | inhibition at 0.2 µM | Structure (SMILES) |
| --- | --- | --- |
| < 30% | < 30% | [2H]C([2H])([2H])Nc1ccc(C(=O)Nc2cc(C)on2)c(NC2CN(C(=O)C(F)(F)CN3CCN(c4ccc(Nc5ncc6c(C)c(C(C)=O)c(=O)n(C7CCCC7)c6n5)nc4)CC3)C2)n1 [CPD-234, 2-((1-(3-(4-(6-((6-acetyl-8-cyclopentyl-5-methyl-7-oxo-7,8-dihydropyrido[2,3-d]pyrimidin-2-yl)amino)pyridin-3-yl)piperazin-1-yl)-2,2-difluoropropanoyl)azetidin-3-yl)amino)-6-((methyl-d3)amino)-N-(5-methylisoxazol-3methyl-yl)nicotinamide] |
| < 30% | 50 to 80% | CNc1ccc(C(=O)Nc2cccc(C#N)n2)c(NC2CC3(CC(NC(=O)CN4CCN(c5ccc(Nc6ncc7c(C)c(C(C)=O)c(=O)n(C8CCCC8)c7n6)nc5)CC4)C3)C2)n1 (stereo not drawn) [CPD-90, 2-((6-(2-(4-(6-((6-Acetyl-8-cyclopentyl-5-methyl-7-oxo-7,8-dihydropyrido[2,3-d]pyrimidin-2-yl)amino)pyridin-3-yl)piperazin-1-yl)acetamido)spiro[3.3]heptan-2-yl)amino)-N-(6-cyanopyridin-2-yl)-6-(methylanino)nicotinamide] |
| < 30% | 30 to 50% | CNc1ccc(C(=O)Nc2cc(C)n(C)n2)c(NC2CCN(C(=O)CN3CCN(c4ccc(Nc5ncc6c(C)c(C(C)=O)c(=O)n(C7CCCC7)c6n5)nc4)CC3)CC2)n1 [CPD-228, 2-((1-(2-(4-(6-((6-acetyl-8-cyclopentyl-5-methyl-7-oxo-7,8-dihydropyrido[2,3-d]pyrimidin-2-yl)amino)pyridin-3-yl)piperazin-1-yl)acetyl)piperidin-4-yl)amino)-N-(1,5-dimethyl-1H-pyrazol-3-yl)-6-(methylamino)nicotinamide] |
| < 30% | 50 to 80% | CNc1ccc(C(=O)Nc2cc[nH]n2)c(NC2CC3(CC(NC(=O)CN4CCN(c5ccc(Nc6ncc7c(C)c(C(C)=O)c(=O)n(C8CCCC8)c7n6)nc5)CC4)C3)C2)n1 (stereo not drawn) [CPD-100, 2-((6-(2-(4-(6-((6-Acetyl-8-cyclopentyl-5-methyl-7-oxo-7,8-dihydropyrido[2,3-d]pyrimidin-2-yl)amino)pyridin-3-yl)piperazin-1-yl)acetamido)spiro[3.3]heptan-2-yl)amino)-6-(methylamino)-N-(1H-pyrazol-3-yl)nicotinamide] |
| 30 to 50% | 30 to 50% | CNc1ccc(C(=O)Nc2ccc(N(C)C)nn2)c(NC2CN(C(=O)CCCN3CCN(c4ccc(Nc5ncc6c(C)c(C(C)=O)c(=O)n(C7CCCC7)c6n5)nc4)CC3)C2)n1 [CPD-211, 2-((1-(4-(4-(6-((6-acetyl-8-cyclopentyl-5-methyl-7-oxo-7,8-dihydropyrido[2,3-d]pyrimidin-2-yl)amino)pyridin-3-yl)piperazin-1-yl)butanoyl)azetidin-3-yl)amino)-N-(6-(dimethylamino)pyridazin-3-yl)-6-(methylamino)nicotinamide] |
| 30 to 50% | 50 to 80% | CNc1ccc(C(=O)Nc2ccc3c(n2)CCC3)c(NC2CC3(CC(NC(=O)CN4CCN(c5ccc(Nc6ncc7c(C)c(C(C)=O)c(=O)n(C8CCCC8)c7n6)nc5)CC4)C3)C2)n1 (stereo not drawn) [CPD-69, 2-((6-(2-(4-(6-((6-Acetyl-8-cyclopentyl-5-methyl-7-oxo-7,8-dihydropyrido[2,3-d]pyrimidin-2-yl)amino)pyridin-3-yl)piperazin-1-yl)acetamido)spiro[3.3]heptan-2-yl)amino)-N-(6,7-dihydro-5H-cyclopenta[b]pyridin-2-yl)-6-(methylamino)nicotinamide] |
| < 30% | 30 to 50% | CC(=O)c1c(C)c2cnc(Nc3ccc(N4CCN(CC(=O)NC5CC6(C5)CC(Nc5nc(C(C)C)ccc5C(=O)Nc5cccc(C7CC7)n5)C6)CC4)cn3)nc2n(C2CCCC2)c1=O (stereo not drawn) [CPD-119, 2-((6-(2-(4-(6-((6-Acetyl-8-cyclopentyl-5-methyl-7-oxo-7,8-dihydropyrido[2,3-d]pyrimidin-2-yl)amino)pyridin-3-yl)piperazin-1-yl)acetamido)spiro[3.3]heptan-2-yl)amino)-N-(6-cyclopropylpyridin-2-yl)-6-isopropylnicotinamide] |
| < 30% | 50 to 80% | CNc1ccc(C(=O)Nc2ccc(N(C)C)nn2)c(NCC2CCN(C(=O)CN3CCN(c4ccc(Nc5ncc6c(C)c(C(C)=O)c(=O)n(C7CCCC7)c6n5)nc4)CC3)CC2)n1 [CPD-145, 2-(((1-(2-(4-(6-((6-acetyl-8-cyclopentyl-5-methyl-7-oxo-7,8-dihydropyrido[2,3-d]pyrimidin-2-yl)amino)pyridin-3-yl)piperazin-1-yl)acetyl)piperidin-4-yl)methyl)amino)-N-(6-(dimethylamino)pyridazin-3-yl)-6-(methylamino)nicotinamide] |
| 30 to 50% | 50 to 80% | CNc1ccc(C(=O)Nc2ccc(N(C)C)nn2)c(NC2CC3(C2)CN(C(=O)N2CCN(c4ccc(Nc5ncc6c(C)c(C(C)=O)c(=O)n(C7CCCC7)c6n5)nc4)CC2)C3)n1 [CPD-133, 2-((2-(4-(6-((6-Acetyl-8-cyclopentyl-5-methyl-7-oxo-7,8-dihydropyrido[2,3-d]pyrimidin-2-yl)amino)pyridin-3-yl)piperazine-1-carbonyl)-2-azaspiro[3.3]heptan-6-yl)amino)-N-(6-(dimethylamino)pyridazin-3-yl)-6-(methylamino)nicotinamide] |
| < 30% | 50 to 80% | CNc1ccc(C(=O)Nc2cccc(C)n2)c(NC[C@H]2CC[C@H](NC(=O)CN3CCN(c4ccc(Nc5ncc6c(C)c(C(C)=O)c(=O)n(C7CCCC7)c6n5)nc4)CC3)CC2)n1 [CPD-126, 2-(((trans-4-(2-(4-(6-((6-Acetyl-8-cyclopentyl-5-methyl-7-oxo-7,8-dihydropyrido[2,3-d]pyrimidin-2-yl)amino)pyridin-3-yl)piperazin-1-yl)acetamido)cyclohexyl)methyl)amino)-6-(methylamino)-N-(6-methylpyridin-2-yl)nicotinamide] |
| 30 to 50% | 50 to 80% | CCc1ccc(C(=O)Nc2cc(C)n(C)n2)c(NC2CC(CNC(=O)CN3CCN(c4ccc(Nc5ncc6c(C)c(C(C)=O)c(=O)n(C7CCCC7)c6n5)nc4)CC3)C2)n1 (stereo not drawn) [CPD-210, 2-((3-((2-(4-(6-((6-acetyl-8-cyclopentyl-5-methyl-7-oxo-7,8-dihydropyrido[2,3-d]pyrimidin-2-yl)amino)pyridin-3-yl)piperazin-1-yl)acetamido)methyl)cyclobutyl)amino)-N-(1,5-dimethyl-1H-pyrazol-3-yl)-6-ethylnicotinamide] |
| < 30% | 30 to 50% | CNc1ccc(C(=O)Nc2cnn(C)c2)c(NC2CC3(CC(NC(=O)CN4CCN(c5ccc(Nc6ncc7c(C)c(C(C)=O)c(=O)n(C8CCCC8)c7n6)nc5)CC4)C3)C2)n1 (stereo not drawn) [CPD-94, 2-((6-(2-(4-(6-((6-Acetyl-8-cyclopentyl-5-methyl-7-oxo-7,8-dihydropyrido[2,3-d]pyrimidin-2-yl)amino)pyridin-3-yl)piperazin-1-yl)acetamido)spiro[3.3]heptan-2-yl)amino)-N-(1-methyl-1H-pyrazol-4-yl)-6-(methylamino)nicotinamide] |
| 50 to 80% | 50 to 80% | CNc1ccc(C(=O)Nc2ccc(N(C)C)nn2)c(NC2CC(CCCC(=O)N3CCN(c4ccc(Nc5ncc6c(C)c(C(C)=O)c(=O)n(C7CCCC7)c6n5)nc4)CC3)C2)n1 (stereo not drawn) [CPD-156, 2-((3-(4-(4-(6-((6-acetyl-8-cyclopentyl-5-methyl-7-oxo-7,8-dihydropyrido[2,3-d]pyrimidin-2-yl)amino)pyridin-3-yl)piperazin-1-yl)-4-oxobutyl)cyclobutyl)amino)-N-(6-(dimethylamino)pyridazin-3-yl)-6-(methylamino)nicotinamide] |
| 30 to 50% | 30 to 50% | CNc1ccc(C(=O)Nc2ccc(C)c(OC)n2)c(NCCCCCNC(=O)CN2CCN(c3ccc(Nc4ncc5c(C)c(C(C)=O)c(=O)n(C6CCCC6)c5n4)nc3)CC2)n1 [CPD-116, 2-((5-(2-(4-(6-((6-Acetyl-8-cyclopentyl-5-methyl-7-oxo-7,8-dihydropyrido[2,3-d]pyrimidin-2-yl)amino)pyridin-3-yl)piperazin-1-yl)acetamido)pentyl)amino)-N-(6-methoxy-5-methylpyridin-2-yl)-6-(methylamino)nicotinamide] |
| 50 to 80% | 50 to 80% | CC(=O)c1c(C)c2cnc(Nc3ccc(N4CCN(CC(=O)NCCCCCNc5nc(C)ccc5C(=O)Nc5nc(C)c(C)s5)CC4)cn3)nc2n(C2CCCC2)c1=O [CPD-3, 2-((5-(2-(4-(6-((6-acetyl-8-cyclopentyl-5-methyl-7-oxo-7,8-dihydropyrido[2,3-d]pyrimidin-2-yl)amino)pyridin-3-yl)piperazin-1-yl)acetamido)pentyl)amino)-N-(4,5-dimethylthiazol-2-yl)-6-methylnicotinamide] |
